Test results reported in US8293781B2, “Indole derivatives having cPLA2 inhibiting activity and applications and production methods of the same” (Daiichi Sankyo Company, Limited, priority 2007, dated 2012).
Where a name gives a salt, the structure may show the parent alone.

Target: T1, cPLA2 crudely purified from the cytoplasm fraction of U937 (Homo sapiens, UniProt P47712)
T1 construct: cPLA2 crudely purified from the cytoplasm fraction of U937; endogenous in cells; host or cells: U937 cells (cytoplasm fraction, crude purification)
T1 sequence (P47712 1-749): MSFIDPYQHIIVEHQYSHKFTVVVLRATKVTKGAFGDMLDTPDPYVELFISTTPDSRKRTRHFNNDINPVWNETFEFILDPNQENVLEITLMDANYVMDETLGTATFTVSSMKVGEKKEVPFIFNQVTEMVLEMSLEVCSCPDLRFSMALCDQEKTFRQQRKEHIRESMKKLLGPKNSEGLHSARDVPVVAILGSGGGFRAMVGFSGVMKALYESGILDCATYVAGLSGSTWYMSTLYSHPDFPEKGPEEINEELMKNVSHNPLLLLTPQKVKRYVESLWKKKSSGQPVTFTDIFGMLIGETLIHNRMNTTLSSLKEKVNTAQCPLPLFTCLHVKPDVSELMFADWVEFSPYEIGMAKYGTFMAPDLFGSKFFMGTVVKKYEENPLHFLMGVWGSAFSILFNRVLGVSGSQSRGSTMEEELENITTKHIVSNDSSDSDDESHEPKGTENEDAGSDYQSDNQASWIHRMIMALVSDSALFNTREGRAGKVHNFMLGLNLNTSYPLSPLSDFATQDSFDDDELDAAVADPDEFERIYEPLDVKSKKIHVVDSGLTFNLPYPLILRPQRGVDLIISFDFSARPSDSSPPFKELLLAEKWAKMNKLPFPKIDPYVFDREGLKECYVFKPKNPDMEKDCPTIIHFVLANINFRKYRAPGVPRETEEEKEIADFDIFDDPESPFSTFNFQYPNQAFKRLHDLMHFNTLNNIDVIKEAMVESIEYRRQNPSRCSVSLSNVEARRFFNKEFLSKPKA
Assay: Measurement of cPLA2 inhibitory activity (release of [14C]-arachidonic acid from phosphatidyl choline liposome)
Assay type: biochemical
Conditions: cPLA2 from U937 cytoplasm fraction, [14C]arachidonyl-phosphatidyl choline liposome, 37° C., 60 minutes; read-out: cPLA2 inhibitory activity, 50% inhibiting concentration IC50
Method: The cPLA2 inhibitory activity was measured based on the method described in the document [See H. Naraba et al., J. Immunol. 160, 2974-2982 (1998)] and modified in the following way.
A DMSO solution of the present invitation compounds was diluted to 2.5 times the final concentration with the assay buffer (4 mM CaCl2, 2 mM dithiothreitol, 150 mM NaCl, 50 mM HEPES buffer solution (pH7.5)) containing 0.55 mg/ml BSA. To 20 μl of this, cPLA2 crudely purified from the cytoplasm fraction of U937 was added in an amount of 10 μl after dilution by an assay buffer solution containing 0.55 mg/ml BSA. A liposome prepared by ultrasonically treating L-α-1-palmitoyl-2-[14C]arachidonyl-phosphatidyl choline (made by PerkinElmer) and adjusted by the assay buffer solution to a concentration of phosphatidyl choline of 10 μM was added and stirred in by an amount of 20 μl and the mixture was reacted at 37° C. for 60 minutes. The [^14C]-arachidonic acid released due to the reaction was extracted based on the method described in the documents [see V. P. Dole et al., J. Biol. Chem. 235, 2595 (1960)], was added to Lumaplate® (made by PerkinElmer), dried, then measured by Topcount® (made by PerkinElmer). Except for not adding the present invention compounds, the same procedure was performed as the above to obtain the enzyme control. Except for not adding the invention compounds and not adding the enzyme, the same procedure was followed as above to obtain a negative control. The inhibiting activity was expressed as a percent (%) of the value minus the negative control with respect to the value of the enzyme control minus the negative control. From this, the 50% inhibiting concentration (IC50, μM) was calculated.

CCOc1ccc(-n2cc(CCc3ccccc3)c3cc(CCC(=O)O)ccc32)cc1 [Example 112, 3-[1-(4-ethoxyphenyl)-3-(2-phenylethyl)-1H-indol-5-yl]propanoic acid 2-amino-2-(hydroxymethyl)propane-1,3-diol salt (1:1)]
IC50: 15 nM

O=C(CCc1ccc2c(c1)c(CCc1ccccc1)cn2-c1ccccc1)C(F)(F)F [Example 113, 1,1,1-trifluoro-4-[1-phenyl-3-(2-phenylethyl)-1H-indol-5-yl]butan-2-one]
IC50: 1150 nM

CCOc1ccc(-n2cc(CCc3ccccc3)c3cc(CCC(=O)N(C)OC)ccc32)cc1 [Example 116, 3-[1-(4-ethoxyphenyl)-3-(2-phenylethyl)-1H-indol-5-yl]-N-methoxy-N-methylpropanamide]
IC50: 2170 nM

CCOc1ccc(-n2cc(CCc3ccccc3)c3cc(CCC=O)ccc32)cc1 [Example 117]
IC50: 527 nM

CCCOc1ccc(-n2cc(CCc3ccccc3)c3cc(CCC(=O)O)ccc32)cc1 [Example 119, 3-[3-(2-phenylethyl)-1-(4-propoxyphenyl)-1H-indol-5-yl]propanoic acid]
IC50: 7 nM

CC(C)Oc1ccc(-n2cc(CCc3ccccc3)c3cc(CCC(=O)O)ccc32)cc1 [Example 121, 3-[1-(4-isopropoxyphenyl)-3-(2-phenylethyl)-1H-indol-5-yl]propanoic acid]
IC50: 7 nM

COc1ccc(-n2cc(CCc3ccccc3)c3cc(CCC(=O)O)ccc32)cn1 [Example 130, 3-[1-(6-methoxy-3-pyridinyl)-3-(2-phenylethyl)-1H-indol-5-yl]propanoic acid]
IC50: 113 nM

O=C(O)CCc1ccc2c(c1)c(CCc1ccccc1)cn2-c1ccccn1 [Example 132, 3-[3-(2-phenylethyl)-1-(2-pyridinyl)-1H-indol-5-yl]propanoic acid hydrochloride]
IC50: 225 nM

O=C(O)CCc1ccc2c(c1)c(CCc1ccccc1)cn2-c1ccc([N+](=O)[O-])cn1 [Example 134, 3-[1-(5-nitro-2-pyridinyl)-3-(2-phenylethyl)-1H-indol-5-yl]propanoic acid hydrochloride]
IC50: 211 nM

Nc1ccc(-n2cc(CCc3ccccc3)c3cc(CCC(=O)O)ccc32)nc1 [Example 135, 3-[1-(5-amino-2-pyridinyl)-3-(2-phenylethyl)-1H-indol-5-yl]propanoic acid]
IC50: 277 nM

CC(=O)Nc1ccc(-n2cc(CCc3ccccc3)c3cc(CCC(=O)O)ccc32)nc1 [Example 140, 3-{1-[5-(acetylamino)-2-pyridinyl]-3-(2-phenylethyl)-1H-indol-5-yl}propanoic acid]
IC50: 117 nM

O=C(O)/C=C/c1ccc2c(c1)c(CCc1ccccc1)cn2-c1ccc(OCc2ccccc2)cc1 [Example 144, (2E)-3-{1-[4-(benzyloxy)phenyl]-3-(2-phenylethyl)-1H-indol-5-yl}-2-propenoic acid]
IC50: 42 nM

O=C(O)CCc1ccc2c(c1)c(CCc1ccccc1)cn2-c1ccccc1[N+](=O)[O-] [Example 149, 3-[1-(2-nitrophenyl)-3-(2-phenylethyl)-1H-indol-5-yl]propanoic acid]
IC50: 278 nM

Nc1ccccc1-n1cc(CCc2ccccc2)c2cc(CCC(=O)O)ccc21 [Example 151, 3-[1-(2-aminophen 1)-3-(2-phenylethyl)-1H-indol-5-yl]propanoic acid]
IC50: 185 nM

CC(=O)Nc1ccccc1-n1cc(CCc2ccccc2)c2cc(CCC(=O)O)ccc21 [Example 153, 3-{1-[2-(acetylamino)phenyl]-3-(2-phenylethyl)-1H-indol-5-yl}propanoic acid]
IC50: 7960 nM

O=C(O)CCc1ccc2c(c1)c(CCc1ccccc1)cn2-c1cccc(OCc2ccccc2)c1 [Example 155, 3-{1-[3-(benzyloxy)phenyl]-3-(2-phenylethyl)-1H-indol-5-yl}propanoic acid 2-amino-2-(hydroxymethyl)propane-1,3-diol salt (1:1)]
IC50: 208 nM

CCOc1cccc(-n2cc(CCc3ccccc3)c3cc(CCC(=O)O)ccc32)c1 [Example 159, 3-[1-(3-ethoxyphenyl)-3-(2-phenylethyl)-1H-indol-5-yl]propanoic acid]
IC50: 515 nM

CCCOc1cccc(-n2cc(CCc3ccccc3)c3cc(CCC(=O)O)ccc32)c1 [Example 161, 3-[3-(2-phenylethyl)-1-(3-propoxyphenyl)-1H-indol-5-yl]propanoic acid]
IC50: 813 nM

CC(C)Oc1cccc(-n2cc(CCc3ccccc3)c3cc(CCC(=O)O)ccc32)c1 [Example 163, 3-[1-(3-isopropoxyphenyl)-3-(2-phenylethyl)-1H-indol-5-yl]propanoic acid]
IC50: 1750 nM

O=C(O)CCc1ccc2c(c1)c(CCc1ccccc1)cn2-c1cccc([N+](=O)[O-])c1 [Example 165, 3-[1-(3-nitrophenyl)-3-(2-phenylethyl)-1H-indol-5-yl]propanoic acid]
IC50: 154 nM

Nc1cccc(-n2cc(CCc3ccccc3)c3cc(CCC(=O)O)ccc32)c1 [Example 167, 3-[1-(3-aminophenyl)-3-(2-phenylethyl)-1H-indol-5-yl]propanoic acid]
IC50: 49 nM

CC(=O)Nc1cccc(-n2cc(CCc3ccccc3)c3cc(CCC(=O)O)ccc32)c1 [Example 169, 3-{1-[3-(acetylamino)phenyl]-3-(2-phenylethyl)-1H-indol-5-yl}propanoic acid]
IC50: 205 nM

CC(C)(C)C(=O)Nc1cccc(-n2cc(CCc3ccccc3)c3cc(CCC(=O)O)ccc32)c1 [Example 171, 3-[1-{3-[(2,2-dimethylpropanoyl)amino]phenyl}-3-(2-phenylethyl)-1H-indol-5-yl]propanoic acid]
IC50: 210 nM

N#Cc1cccc(-n2cc(CCc3ccccc3)c3cc(CCC(=O)O)ccc32)c1 [Example 173, 3-[1-(3-cyanophenyl)-3-(2-phenylethyl)-1H-indol-5-yl]propanoic acid]
IC50: 259 nM

O=Cc1cccc(-n2cc(CCc3ccccc3)c3cc(CCC(=O)O)ccc32)c1 [Example 175, 3-[1-(3-formylphenyl)-3-(2-phenylethyl)-1H-indol-5-yl]propanoic acid]
IC50: 143 nM

O=C(O)CCc1ccc2c(c1)c(CCc1ccccc1)cn2-c1cccc(C(=O)O)c1 [Example 177, 3-[5-(2-carboxyethyl)-3-(2-phenylethyl)-1H-indol-1-yl]benzoic acid]
IC50: 2520 nM

CN(C)c1cccc(-n2cc(CCc3ccccc3)c3cc(CCC(=O)O)ccc32)c1 [Example 179, 3-{1-[3-(dimethylamino)phenyl]-3-(2-phenylethyl)-1H-indol-5-yl}propanoic acid]
IC50: 182 nM

O=C(O)CCc1ccc2c(c1)c(CCc1ccccc1)cn2-c1cccc(Cl)c1 [Example 181, 3-[1-(3-chlorophenyl)-3-(2-phenylethyl)-1H-indol-5-yl]propanoic acid]
IC50: 138 nM

O=C(O)CCc1ccc2c(c1)c(CCc1ccccc1)cn2-c1cccc(F)c1 [Example 183, 3-[1-(3-fluorophenyl)-3-(2-phenylethyl)-1H-indol-5-yl]propanoic acid]
IC50: 70 nM

O=C(O)CCc1ccc2c(c1)c(CCc1ccccc1)cn2-c1cccc(OC(F)F)c1 [Example 185, 3-{1-[3-(difluoromethoxy)phenyl]-3-(2-phenylethyl)-1H-indol-5-yl}propanoic acid]
IC50: 278 nM

O=C(O)CCc1ccc2c(c1)c(CCc1ccccc1)cn2-c1ccc(OC(F)F)cc1 [Example 189, 3-{1-[4-(difluoromethoxy)phenyl]-3-(2-phenylethyl)-1H-indol-5-yl}propanoic acid]
IC50: 43 nM

Nc1ccc(-n2cc(CCc3ccccc3)c3cc(CCC(=O)O)ccc32)cc1 [Example 196, 3-[1-(4-aminophenyl)-3-(2-phenylethyl)-1H-indol-5-yl]propanoic acid]
IC50: 66 nM
